In brackets after ≈: the same amount, converted by molar mass. Read-outs that look alike come from different tables or passages of the source.

One data set has as its system M.tb H37Rv. As to the kind of experiment: Broth microdilution MIC with Alamar blue endpoint (MABA), M.tb H37Rv. The format is cell-based. Conditions: Mycobacterium tuberculosis, read-out: MIC (H37Rv). Background: Dilution methods test growth across graded concentrations, often in twofold steps.
Data set [1] relates to methicillin resistant Staphylococcus aureus (MRSA) ATCC BAA-1556. The data set is described as follows: MIC against MRSA strain ATCC BAA-1556. As to conditions: ATCCBAA1556|MRSA.
Data set [2] has as its system African green monkey kidney (Vero; ATCC #CCL81) cells. As to the kind of experiment: In vitro cytotoxicity (PrestoBlue cell viability), Vero cells. Conditions: Chlorocebus sabaeus, 72 h, read-out: Cell viability IC50, VERO.
Protocol: (§1) Data is reported out as the full cell viability curve, as well as a calculation of the actual IC50 value for each compound.
(§2) Adherent cells were grown to ˜80% confluency. […] The cell density was determined using a hemocytometer.
(§3) These compounds were provided as sterile aqueous solutions of HCl salts with a concentration of 5 mg/ml. For making dilutions, each drug stock was warmed to room temperature, vortexed and was visually inspected for precipitation. If solid drug was present, the stock was heated on a 60° C. water bath and then allowed to cool to near room temperature. Based on the treatment concentrations, 20× working stocks were made by serial dilution.
(§4) At the end of the compound incubation period, replace the media in each well with 100 μl of 1× PrestoBlue Cell Viability Reagent (ThermoFisher Cat #A13261). Incubate the plate at 37° C. in a humidified incubator with 5% CO2 30 min to 2 h. […] Read fluorescence with 560 nm excitation and 590 nm emission using SpectraMax M5 plate reader (Molecular Devices). Correct background by subtracting the RFU of the control containing only the culture medium (background control well) from all sample readings. Calculate the percentage of cytotoxicity using the formula below:
(§5) The IC50 was determined using GraphPad Prism using the following formula:
Data set [3] concerns methicillin resistant Staphylococcus aureus (MRSA) ATCC 43300. As to the kind of experiment: MIC against MRSA strain ATCC 43300. As to conditions: read-out: MRSA MIC, strain ATCC 43300.
Data set [4] deals with mitochondrial protein synthesis vs H37Rv M. tuberculosis. The data set is described as follows: MPS selectivity index (MPS IC50 / MIC H37Rv).
The subject of data set [5] is methicillin resistant Staphylococcus aureus (MRSA) 880 NR-49120. As to the kind of experiment: MIC against MRSA strain 880 NR-49120. As to conditions: read-out: MRSA MIC, strain 880 NR-49120.
Data set [6] deals with human hepatocyte/liver (HepG2; ATCC #HB8065) cells. As to the kind of experiment: In vitro cytotoxicity (PrestoBlue cell viability), HepG2 cells. Conditions: HepG2, 72 h, read-out: Cell viability IC50, HepG2.
Protocol: as §1, §2, §3, §4, §5
The test system of data set [7] is mitochondrial protein synthesis (COX-1/SDH-A) in H9C2 rat heart myoblast cells. As to the kind of experiment: Inhibition of mitochondrial protein synthesis (MitoBiogenesis in-cell ELISA, COX-1/SDH-A). As to conditions: H9c2, 120 h, read-out: MPS IC50. In general terms: In an ELISA, binding on a coated surface is turned into a signal by an enzyme label.
Protocol: Inhibition of mitochondrial protein synthesis was determined using a colorimetric MitoBiogenesis™ in-cell ELISA kit from AbCam (Catalog #ab11021), as per the manufacturer's instructions. […] The levels of two mitochondrial proteins were measured simultaneously, including the mitochondrial DNA-encoded subunit I of Complex IV (COX-1) and the nuclear DNA-encoded 70 kDa subunit of Complex II (SDH-A). The H9C2 rat BDIX heart myoblast cell line was used in these studies in a 384 well plate assay format. Cells were grown in DMEM media with 10% FBS and 1×Glutamine at 37° C. and 5% CO2. […] Ten concentrations of each compound, starting at a high concentration of 200 μM and including nine 3-fold dilutions and one replicate per condition, were added to the cells in 2.5 μl and incubated with the cells for five days at 37° C. and 5% CO2.
COX-I and SDH-A signals were plotted as a ratio of COX-1/SDH-A against concentration of each compound, and the IC50 were calculated for each of the 9 investigational compounds and two controls.
Data set [8] in a line: Liposome loading: encapsulated drug-to-lipid ratio and encapsulation efficiency. It is filed as physicochemical. The method, then: 1. The lipid components (phospholipid (PhL), cholesterol, and optionally—a PEG-lipid derivative and/or a lipid fluorescent label were combined in an amount of 100% ethanol equal to one-tenth of a volume (V) calculated to obtain lipid suspension with about 60 mM phospholipid and stirred at the temperature of 65-68° C. until complete dissolution of the lipids.
2. The ethanolic lipid solution was combined with volume V of the trapping agent solution (0.25-0.5 M ammonium sulfate or 1 N triethylammonium sucrose octasulfate) upon stirring at 65-68° C. until a uniform suspension was obtained.
3. The lipid suspension was extruded at least three times through a stack of track-etched polycarbonate membranes, typically, two or four membranes with the nominal pore size of 100 nm and one with the nominal pore size 200 nm (Whatman Nuclepore, USA), using a thermobarrel extruder (Lipex, Canada) at 65-68° C., at the pressure of 400-450 psi. When two 100-nm membranes were used in a 100-ml Lipex extruder, the extrusion pressure was typically 260-300 psi. The resulting liposomes have Z-average particle size (diameter) Xz between about 80 and about 130 nm, and PDI less than 0.1.
5. An aliquot of the extruded, filtered liposome suspension so made was chromatographed on a gravity-fed Sepharose CL-4B size exclusion column (eluent-Type 1 water), to purify the liposomes from extraliposomal trapping agent. The purified liposomes were collected near the void volume fraction of the column. For a scale-up studies, this step was performed using a tangential flow filtration (TFF) on a hollow fiber cartridge (Repligen Spectrum MicroKros PS or mPES membrane with MWCO of 500 KDa) effecting 8-10 volume exchanges (or until the conductivity of the liposome suspension dropped below 200 μS/cm) with Type 1 or USP “Water for injection” endotoxin-free water.
6. The lipid concentration in a purified extruded liposome preparation was determined using HPLC with UV detection, by measuring the concentration of cholesterol and correcting for the known phospholipid/cholesterol molar ratio. Alternatively, a spectrophotometric blue phosphomolybdate method was used to directly quantify the phospholipid content.
7. The drug was dissolved in Type 1 or endotoxin-free pure water in the form of a hydrochloric acid salt (e.g., AKG-3 and AKG-5 were used as monohydrochloride, AKG-28 and AKG-29 were used as dihydrochloride) at the concentration of 5-20 mg/ml of the drug. To the drug prepared in free base form (e.g., AKG-16, AKG-38), an equivalent amount of HCl was added. If necessary, pH of the solution was brought between pH 2.5-5.5, using 1 N NaOH, HCL, or tris(hydroxymethyl)aminomethane (Tris)-base solution, and the solution was filtered through a 0.2-micron PES filter under positive pressure. When necessary, the drug concentration in the stock solution so made was verified by HPLC with UV detection at 305 nm.
8. Purified liposomes of step 5 and the drug stock solution were combined in the presence of an osmotic agent (typically dextrose) and water in the amounts necessary to provide a desired drug-to-phospholipid (DL) ratio, the drug concentration in the range 1.5-3.3 mg/ml, at the osmolality equal to the measured osmolality of the trapping agent solution of step 2. Optionally, a buffer at a desired pH (typically pH 4 to pH 7) was added. In some instances, the amount of added osmotic agent (e.g., dextrose at about 45 g/L) provided osmolality less that the measured osmolality of the trapping agent solution, and the loading was effected at 6-8 mg/ml of the drug.
9. The drug-liposome mixture was incubated with constant agitation at 65-68° C. for about 15-20 min and quickly chilled on ice. After 5-10 min, the mixture was allowed to reach ambient temperature an adjusted to 0.1M NaCl by adding a calculated amount of 3 M NaCl stock solution.
10. […] The liposome fractions were collected near the column void volume. […]

Data set [9] is classed as physicochemical. As for the experimental part:
To the resulting cake or syrup, water was added typically to the final 10 mg/ml, and complete dissolution was observed. […] Aqueous solubility of the compounds of the present disclosure is illustrated by the following observations of obtaining visually clear solutions: […]

For a further data set, the system named is M.tb Erdman. The data set is described as follows: Broth microdilution MIC with Alamar blue endpoint (MABA), M.tb Erdman. The format is cell-based, Mycobacterium tuberculosis. As to conditions: Mycobacterium tuberculosis, ERDMAN; broth microdilution, MABA/OD600.
For data set [10] the following is noted: male, Sprague-Dawley, rat, in vivo, po, 50 mg/kg.
Protocol: For plasma drug measurements, 0.5 ml blood was collected in lithium heparin tubes at 5 min, 15 min, 1 h, 3 h, 6 h, 24 h, 48 h, and 72 h. The samples were centrifuged and the resultant plasma was separated and transferred to duplicate clear polypropylene tubes, frozen immediately over dry ice, and stored at −80° C. until analysis. The plasma concentration in rats was determined by HPLC. Non-compartment PK analyses were performed using Phoenix WinNonlin (Version 7.0).
For another data set, the system named is M. tuberculosis Erdman. Conditions: eight weeks, Balb/c and C3HeB/FeJ mice; cited from earlier work.
Data set [11] concerns methicillin resistant Staphylococcus aureus (MRSA) ATCC BAA-1556. As to conditions: cited from earlier work.
The mark [12] stands for this setting: read-out: MIC against the three MRSA strains.
The mark [13] stands for this setting: read-out: MRSA MIC, strain ATCC BAA-1556.

Take `CN(C)CCCn1nnc(-c2ccc(-c3ccc(N4C[C@H](CN)OC4=O)cc3F)cn2)n1.Cl` (stereo in doubt) [AKG-30]: the MIC was 0.125 µg/mL in the data set on M.tb H37Rv; more than 50 µg/mL in data set [1] (setting [12]); more than 50 µg/mL in data set [1] (setting [13]); more than 50 µg/mL in data set [3]; more than 50 µg/mL in [5]. For the same molecule, the IC50 in data set [2] turned out to be 110 µg/mL; in data set [6], 18.9 µg/mL; in data set [7], 0.252 µg/mL. Also, the “SI-MPS MPS/H37” value in data set [4] is listed as 2.02.
In the case of `CN(C)CCn1nnc(-c2ccc(-c3ccc(N4C[C@H](CO)OC4=O)cc3F)cn2)n1` [AKG-16], the “Maximum encapsulated drug payload” value was 668-675 g/mol PhL in [8] (0.5 M AS, 0.5 mol % PEG) and 614-619 g/mol PhL in data set [8] (0.5 M AS, 5 mol % PEG). Besides, the maximum drug load in data set [8] (1 N TEA-SOS, DL0 750-1500 g/mol PhL) was 938-951 g/mol PhL. In addition, in data set [9], the “Concentration % (w/w) of free base, visually clear solution” value (from here on “Concentration % (w/w) of free base”) was 30.0 % (w/w).
Regarding `CN(C)CCn1nnc(-c2ccc(-c3ccc(N4C[C@H](CN)OC4=O)cc3F)cn2)n1` [AKG-28], in data set [9], the “Concentration % (w/w) of free base” value is 7.3 % (w/w).
As to `Cl.Cl.NCCn1nnc(-c2ccc(-c3ccc(N4C[C@H](CN)OC4=O)cc3F)cn2)n1` [AKG-29], the minimum inhibitory concentration (MIC) was more than 50 µg/mL in [1] (setting [12]); 50 µg/mL in [1] (setting [13]); more than 50 µg/mL in [3]; 0.25 µg/mL against M.tb Erdman; 50 µg/mL in [5]. Further, the half-inhibitory concentration (IC50) in [2] turned out to be 110 µg/mL; in data set [6], 74.4 µg/mL. Moreover, in data set [4], the “SI-MPS MPS/H37” value stood at 32.80.
In the case of `CC(=O)NC[C@H]1CN(c2ccc(-c3ccc(-c4nnn(CCN(C)C)n4)nc3)c(F)c2)C(=O)O1` [AKG-38], the IC50 in data set [2] is not below 395 µg/mL; in data set [6] it was 97 µg/mL (≈ 207 µM); in data set [7] it was 0.041 µg/mL (≈ 0.0875 µM). Moreover, the maximum drug load in data set [8] (0.5 M AS, HSPC/Chol 3:2, 0.5 mol % PEG-DSG (Example 14)) is reported as 818-842 g/mol PhL; in data set [8] (1 N TEA-SOS, HSPC/Chol 3:2, 0.5 mol % PEG-DSG (Example 14)), 989 g/mol PhL. The drug load in [8] (30 mol % cholesterol, 5 mol % PEG-DSG, 1 N TEA-SOS) is on record as 462.4 g/mol PhL. The “Concentration % (w/w) of free base” value in [9] is 7.1 % (w/w).
As to `CC(=O)NC[C@H]1CN(c2ccc(N3CCOCC3)c(F)c2)C(=O)O1` [Linezolid], in [10], the AUC0-last/Dose is 5.64 [hr*μg/mL]/[mg/kg]. The “log 10 CFU counts, linezolid monotherapy (Lanoix et al.)” value in the data set with M. tuberculosis Erdman was 4-6 log 10 CFU.
In the case of `Cn1nnc(-c2ccc(-c3ccc(N4C[C@H](CO)OC4=O)cc3F)cn2)n1` [Tedizolid, reference compound], the “SI-MPS MPS/H37” value in data set [4] was 0.57. For the same molecule, the “MIC described in U.S. Pat. No. 7,816,379” value in [11] is 0.5 µg/mL (≈ 1.35 µM).

By MIC is commonly meant the smallest concentration in the dilution series that meets the test's criterion for growth inhibition. The IC50 is the concentration that inhibits the measured activity by half.

(Values after patent publication US20260083674A1, “OXAZOLIDINONE LIPOSOME COMPOSITIONS” (priority 2021, published 2026).)
